Measurements published in patent US8394952B2 (Vertex Pharmaceuticals Incorporated, priority 2006, dated 2013).

What follows are molecules tested against Plk1 (Homo sapiens, UniProt P53350) (assay: biochemical).
Plk1, sequence (P53350 20-338): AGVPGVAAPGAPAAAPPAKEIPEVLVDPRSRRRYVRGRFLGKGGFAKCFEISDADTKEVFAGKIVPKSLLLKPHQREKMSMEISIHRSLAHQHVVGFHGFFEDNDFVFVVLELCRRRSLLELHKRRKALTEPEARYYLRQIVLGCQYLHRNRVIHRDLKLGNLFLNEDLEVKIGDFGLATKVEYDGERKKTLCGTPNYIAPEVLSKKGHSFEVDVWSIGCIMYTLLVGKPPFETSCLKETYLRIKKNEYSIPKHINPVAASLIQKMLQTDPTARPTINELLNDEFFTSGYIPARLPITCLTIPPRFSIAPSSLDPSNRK
For `COc1cc(C(=O)NCc2ccccn2)ccc1Nc1ncc2c(n1)N(C1CCCC1)CC(C)(C)C(=O)N2C` [Compound I-255, 4-(9-cyclopentyl-5,7,7-trimethyl-6-oxo-6,7,8,9-tetrahydro-5H-pyrimido[4,5-b][1,4]diazepin-2-ylamino)-3-methoxy-N-(pyridin-2-ylmethyl)benzamide], the Ki was < 10 nM.
`CCCNC(=O)c1ccc(Nc2ncc3c(n2)N(C2CCCC2)CC(C)(C)C(=O)N3C)c(OC)c1` [Compound I-218, 4-(9-cyclopentyl-5,7,7-trimethyl-6-oxo-6,7,8,9-tetrahydro-5H-pyrimido[4,5-b][1,4]diazepin-2-ylamino)-3-methoxy-N-propylbenzamide] was tested, and the Ki was < 10 nM.
`CNC(=O)c1ccc(Nc2ncc3c(n2)N(Cc2ccccc2)CC(C)(C)C(=O)N3C)c(OC)c1` [Compound I-122, 4-(9-benzyl-6,7,8,9-tetrahydro-5,7,7-trimethyl-6-oxo-5H-pyrimido[4,5-b][1,4]diazepin-2-ylamino)-3-methoxy-N-methylbenzamide] showed a Ki of 10 to 100 nM.
`COc1cc(C(=O)NC2CC3CCC2C3)ccc1Nc1ncc2c(n1)N(C1CCCC1)CC(C)(C)C(=O)N2C` (centres unmarked) [Compound I-210, N-(bicyclo[2.2.1]heptan-2-yl)-4-(9-cyclopentyl-5,7,7-trimethyl-6-oxo-6,7,8,9-tetrahydro-5H-pyrimido[4,5-b][1,4]diazepin-2-ylamino)-3-methoxybenzamide] was tested, and the Ki was < 10 nM.
`COc1cc(C(=O)N[C@H]2CCOC2)ccc1Nc1ncc2c(n1)N(C1CCCC1)CC1(CC1)C(=O)N2C` [Compound I-179, (S)-4-(9′-cyclopentyl-5′-methyl-6′-oxo-5′,6′,8′,9′-tetrahydrospiro[cyclopropane-1,7′-pyrimido[4,5-b][1,4]diazepine]-2′-ylamino)-3-methoxy-N-(tetrahydrofuran-3-yl)benzamide] was tested, and the Ki was < 10 nM.
For `COc1cc(C(=O)NC(C)(C)CO)ccc1Nc1ncc2c(n1)N(C1CCCC1)CC1(CC1)C(=O)N2C` [Compound I-271, 4-(9′-cyclopentyl-5′-methyl-6′-oxo-5′,6′,8′,9′-tetrahydrospiro[cyclopropane-1,7′-pyrimido[4,5-b][1,4]diazepine]-2′-ylamino)-N-(1-hydroxy-2-methylpropan-2-yl)-3-methoxybenzamide], the Ki was < 10 nM.
For `CC(=O)Nc1ccc(Nc2ncc3c(n2)N(C2CCCC2)CC(C)(C)C(=O)N3C)cc1` [Compound I-112, N-(4-(9-cyclopentyl-6,7,8,9-tetrahydro-5,7,7-trimethyl-6-oxo-5H-pyrimido[4,5-b][1,4]diazepin-2-ylamino)phenyl)acetamide], the Ki was 10 to 100 nM.
`CNC(=O)c1ccc(Nc2ncc3c(n2)N(C2CCCC2)C[C@@H](C)C(=O)N3C)c(OC)c1` [Compound I-18, 4-((R)-9-cyclopentyl-6,7,8,9-tetrahydro-5,7-dimethyl-6-oxo-5H-pyrimido[4,5-b][1,4]diazepin-2-ylamino)-3-methoxy-N-methylbenzamide] was tested, and the Ki was < 10 nM.
`COc1cc(C(=O)NC2CCN(C)CC2)ccc1Nc1ncc2c(n1)N(C1CCCC1)CC(C)C(=O)N2C` (centres unmarked) [Compound I-12, 4-(9-cyclopentyl-6,7,8,9-tetrahydro-5,7-dimethyl-6-oxo-5H-pyrimido[4,5-b][1,4]diazepin-2-ylamino)-3-methoxy-N-(1-methylpiperidin-4-yl)benzamide] was tested, and the Ki was < 10 nM.
For `COc1cc(C(=O)NCc2ccncc2)ccc1Nc1ncc2c(n1)N(C1CCCC1)CC1(CC1)C(=O)N2C` [Compound I-247, 4-(9′-cyclopentyl-5′-methyl-6′-oxo-5′,6′,8′,9′-tetrahydrospiro[cyclopropane-1,7′-pyrimido[4,5-b][1,4]diazepine]-2′-ylamino)-3-methoxy-N-(pyridin-4-ylmethyl)benzamide], the Ki was < 10 nM.
In the case of `COc1cc(C(=O)NCCc2cn(C)cn2)ccc1Nc1ncc2c(n1)N(C1CCCC1)CC(C)(C)C(=O)N2C` [Compound I-31, 4-(9-cyclopentyl-6,7,8,9-tetrahydro-5,7,7-trimethyl-6-oxo-5H-pyrimido[4,5-b][1,4]diazepin-2-ylamino)-3-methoxy-N-(2-(1-methyl-1H-imidazo-4-yl)ethyl)benzamide], the Ki is reported as < 10 nM.
`CN1C(=O)C(C)(C)CN(C2CCCC2)c2nc(Nc3ccc4cn[nH]c4c3)ncc21` [Compound I-47, 2-(1H-indazo-6-ylamino)-9-cyclopentyl-8,9-dihydro-5,7,7-trimethyl-5H-pyrimido[4,5-b][1,4]diazepin-6(7H)-one] was tested, and the Ki was < 10 nM.
`COc1cc(C(=O)NCc2ccco2)ccc1Nc1ncc2c(n1)N(C1CCCC1)CC1(CC1)C(=O)N2C` [Compound I-248, 4-(9′-cyclopentyl-5′-methyl-6′-oxo-5′,6′,8′,9′-tetrahydrospiro[cyclopropane-1,7′-pyrimido[4,5-b][1,4]diazepine]-2′-ylamino)-N-(furan-2-ylmethyl)-3-methoxybenzamide] was tested, and the Ki was < 10 nM.
`CN1C(=O)C(C)(C)CN(C2CCCC2)c2nc(Nc3ccc4ncsc4c3)ncc21` [Compound I-44, 2-(benzo[d]thiazol-6-ylamino)-9-cyclopentyl-8,9-dihydro-5,7,7-trimethyl-5H-pyrimido[4,5-b][1,4]diazepin-6(7H)-one] gave a Ki of 10 to 100 nM.
In the case of `CNC(=O)c1ccc(Nc2ncc3c(n2)N(CC2CC2(F)F)CC(C)(C)C(=O)N3C)c(OC)c1` (centres unmarked) [Compound I-169, 4-(9-((2,2-difluorocyclopropyl)methyl)-6,7,8,9-tetrahydro-5,7,7-trimethyl-6-oxo-5H-pyrimido[4,5-b][1,4]diazepin-2-ylamino)-3-methoxy-N-methylbenzamide], the Ki is reported as < 10 nM.
In the case of `CN1C(=O)C(C)(C)CN(C2CCCC2)c2nc(Nc3ccc(N4CCOCC4)cc3)ncc21` [Compound I-63, 2-(4-morpholinophenylamino)-9-cyclopentyl-8,9-dihydro-5,7,7-trimethyl-5H-pyrimido[4,5-b][1,4]diazepin-6(7H)-one], the Ki is reported as 10 to 100 nM.
`CN1C(=O)C(C)(C)CN(C2CCCC2)c2nc(Nc3cccc(C(=O)NC4CC4)c3)ncc21` [Compound I-159, 3-(9-cyclopentyl-6,7,8,9-tetrahydro-5,7,7-trimethyl-6-oxo-5H-pyrimido[4,5-b][1,4]diazepin-2-ylamino)-N-cyclopropylbenzamide] showed a Ki of 10 to 100 nM.
Molecule `COc1cc(C(=O)O)ccc1Nc1ncc2c(n1)N(C1CCCC1)CCC(=O)N2C` [Compound I-1, 4-(9-Cyclopentyl-6,7,8,9-tetrahydro-5-methyl-6-oxo-5H-pyrimido[4,5-b][1,4]diazepin-2-ylamino)-3-methoxybenzoic acid] has a Ki of 10 to 100 nM.
`CNC(=O)c1ccc(Nc2ncc3c(n2)N(CC(C)(C)C)CC(C)(C)C(=O)N3C)c(OC)c1` [Compound I-168, 4-(6,7,8,9-tetrahydro-5,7,7-trimethyl-9-neopentyl-6-oxo-5H-pyrimido[4,5-b][1,4]diazepin-2-ylamino)-3-methoxy-N-methylbenzamide] gave a Ki of 10 to 100 nM.
`COc1cc(C(=O)N[C@H]2CCN(CC3CC3)C2)ccc1Nc1ncc2c(n1)N(C1CCCC1)CC(C)(C)C(=O)N2C` [Compound I-75, 4-(9-cyclopentyl-6,7,8,9-tetrahydro-5,7,7-trimethyl-6-oxo-5H-pyrimido[4,5-b][1,4]diazepin-2-ylamino)-N—((S)-1-(cyclopropylmethyl)pyrrolidin-3-yl)-3-methoxybenzamide] was tested, and the Ki was < 10 nM.
In the case of `COc1cc(C(=O)Nc2ccncc2)ccc1Nc1ncc2c(n1)N(C1CCCC1)CC(C)(C)C(=O)N2C` [Compound I-24, 4-(9-cyclopentyl-6,7,8,9-tetrahydro-5,7,7-trimethyl-6-oxo-5H-pyrimido[4,5-b][1,4]diazepin-2-ylamino)-3-methoxy-N-(pyridin-4-yl)benzamide], the Ki is reported as < 10 nM.
In the case of `COCC(=O)Nc1ccc(Nc2ncc3c(n2)N(C2CCCC2)CC(C)(C)C(=O)N3C)c(OC)c1` [Compound I-104, N-(4-(9-cyclopentyl-5,7,7-trimethyl-6-oxo-6,7,8,9-tetrahydro-5H-pyrimido[4,5-b][1,4]diazepin-2-ylamino)-3-methoxyphenyl)-2-methoxyacetamide], the Ki is reported as < 10 nM.
In the case of `COc1ccc(NC(=O)c2ccc(Nc3ncc4c(n3)N(C3CCCC3)CC(C)(C)C(=O)N4C)c(OC)c2)cc1` [Compound I-261, 4-(9-cyclopentyl-5,7,7-trimethyl-6-oxo-6,7,8,9-tetrahydro-5H-pyrimido[4,5-b][1,4]diazepin-2-ylamino)-3-methoxy-N-(4-methoxyphenyl)benzamide], the Ki is reported as < 10 nM.
With `COc1cc(C(=O)NC2CCN(C)CC2)ccc1Nc1ncc2c(n1)N(C1CCCC1)C[C@@H](C)C(=O)N2C` [Compound I-22, 4-((R)-9-cyclopentyl-6,7,8,9-tetrahydro-5,7-dimethyl-6-oxo-5H-pyrimido[4,5-b][1,4]diazepin-2-ylamino)-3-methoxy-N-(1-methylpiperidin-4-yl)benzamide] the Ki was < 10 nM.
`COc1cc(C(=O)N2CCOCC2)ccc1Nc1ncc2c(n1)N(C1CCCC1)CC(C)(C)C(=O)N2C` [Compound I-199, 9-cyclopentyl-2-(2-methoxy-4-(morpholine-4-carbonyl)phenylamino)-5,7,7-trimethyl-8,9-dihydro-5H-pyrimido[4,5-b][1,4]diazepin-6(7H)-one] was tested, and the Ki was < 10 nM.
`COc1cc(C(=O)NCC2CC2)ccc1Nc1ncc2c(n1)N(C1CCCC1)CC(C)(C)C(=O)N2C` [Compound I-131, 4-(9-cyclopentyl-6,7,8,9-tetrahydro-5,7,7-trimethyl-6-oxo-5H-pyrimido[4,5-b][1,4]diazepin-2-ylamino)-N-(cyclopropylmethyl)-3-methoxybenzamide] was tested, and the Ki was < 10 nM.
Molecule `CNC(=O)c1ccc(Nc2ncc3c(n2)N(CC(F)(F)C(F)(F)F)CC(C)(C)C(=O)N3C)c(OC)c1` [Compound I-160, 4-(9-(2,2,3,3,3-pentafluoropropyl)-6,7,8,9-tetrahydro-5,7,7-trimethyl-6-oxo-5H-pyrimido[4,5-b][1,4]diazepin-2-ylamino)-3-methoxy-N-methylbenzamide] has a Ki of 10 to 100 nM.
For `COc1cc(C(=O)NC2CCC2)ccc1Nc1ncc2c(n1)N(C1CCCC1)CC(C)(C)C(=O)N2C` [Compound I-94, 4-(9-cyclopentyl-6,7,8,9-tetrahydro-5,7,7-trimethyl-6-oxo-5H-pyrimido[4,5-b][1,4]diazepin-2-ylamino)-N-cyclobutyl-3-methoxybenzamide], the Ki was < 10 nM.
With `COc1cc(C(=O)NC2CCN(C)CC2)ccc1Nc1ncc2c(n1)N(C1CCCC1)C[C@H](C)C(=O)N2C` [Compound I-21, 4-((S)-9-cyclopentyl-6,7,8,9-tetrahydro-5,7-dimethyl-6-oxo-5H-pyrimido[4,5-b][1,4]diazepin-2-ylamino)-3-methoxy-N-(1-methylpiperidin-4-yl)benzamide] the Ki was < 10 nM.
